Measurements from ChEMBL document CHEMBL2073791, “Substituted pyridazino[3,4-b][1,5]benzoxazepin-5(6H)ones as multidrug-resistance modulating agents” (J Med Chem, 2004).

Molecular target: ATP-dependent translocase ABCB1 (Homo sapiens, UniProt P08183)
Experiment: TP_TRANSPORTER: drug resistance (vincristine) in HeLa-MDR1 cells
Type: functional, cell-based

ATP-dependent translocase ABCB1, sequence (P08183 whole entry): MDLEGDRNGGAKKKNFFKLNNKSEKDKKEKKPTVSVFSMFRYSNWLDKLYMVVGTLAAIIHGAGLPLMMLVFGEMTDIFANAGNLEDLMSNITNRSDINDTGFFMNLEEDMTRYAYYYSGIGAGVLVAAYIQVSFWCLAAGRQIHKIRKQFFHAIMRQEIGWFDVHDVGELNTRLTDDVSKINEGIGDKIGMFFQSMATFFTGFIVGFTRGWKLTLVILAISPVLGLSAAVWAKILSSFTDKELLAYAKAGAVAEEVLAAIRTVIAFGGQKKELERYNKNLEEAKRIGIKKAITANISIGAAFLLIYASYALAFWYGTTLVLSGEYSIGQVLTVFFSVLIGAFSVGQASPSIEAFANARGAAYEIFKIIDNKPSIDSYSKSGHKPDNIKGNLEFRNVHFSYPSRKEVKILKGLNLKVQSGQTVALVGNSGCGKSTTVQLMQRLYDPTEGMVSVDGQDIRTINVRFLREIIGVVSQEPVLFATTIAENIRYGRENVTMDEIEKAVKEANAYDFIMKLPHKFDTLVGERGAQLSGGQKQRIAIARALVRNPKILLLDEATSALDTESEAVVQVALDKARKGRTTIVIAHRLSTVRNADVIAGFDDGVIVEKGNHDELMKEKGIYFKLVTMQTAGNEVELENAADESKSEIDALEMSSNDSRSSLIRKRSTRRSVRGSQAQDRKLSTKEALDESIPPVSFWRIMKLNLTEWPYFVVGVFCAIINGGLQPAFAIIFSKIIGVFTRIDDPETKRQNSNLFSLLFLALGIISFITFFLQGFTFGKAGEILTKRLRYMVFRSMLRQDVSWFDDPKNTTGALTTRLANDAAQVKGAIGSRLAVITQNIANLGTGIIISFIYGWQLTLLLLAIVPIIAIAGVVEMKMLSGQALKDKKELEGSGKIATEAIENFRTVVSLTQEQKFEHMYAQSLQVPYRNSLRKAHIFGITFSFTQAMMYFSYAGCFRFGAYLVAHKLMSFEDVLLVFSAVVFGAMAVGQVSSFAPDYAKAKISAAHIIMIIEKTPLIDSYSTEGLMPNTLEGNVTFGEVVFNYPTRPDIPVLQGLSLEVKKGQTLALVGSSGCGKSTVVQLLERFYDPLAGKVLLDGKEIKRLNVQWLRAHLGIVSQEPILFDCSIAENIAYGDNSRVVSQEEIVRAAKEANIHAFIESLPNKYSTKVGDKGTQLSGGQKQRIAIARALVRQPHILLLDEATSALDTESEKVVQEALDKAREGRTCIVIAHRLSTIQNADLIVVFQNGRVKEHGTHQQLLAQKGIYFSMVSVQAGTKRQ

Activity	SMILES
substrate [+]	O=C1c2cc(Cl)nnc2Oc2cc(C(F)(F)F)ccc2N1CCCN1CCN(C(c2ccccc2)c2ccccc2)CC1
substrate [+]	O=C1c2cc(Cl)nnc2Oc2ccc(C(F)(F)F)cc2N1CCCN1CCN(Cc2ccccc2)CC1
substrate [+]	O=C1c2cc(Cl)nnc2Oc2ccc(C(F)(F)F)cc2N1CCCN1CCN(c2ccccc2)CC1
substrate [+]	Cc1cc(C)c2c(c1)N(CCCN1CCN(c3ccccc3)CC1)C(=O)c1cc(Cl)nnc1O2
